{"source": "patent US20260325506A1", "about": "“METHODS OF TREATING POST-TRAUMATIC STRESS DISORDER AND ALCOHOL USE DISORDER” (FLORIDA ATLANTIC UNIVERSITY RESEARCH CORPORATION, priority 2023, published 2026)", "key": {"[1]": {"system": "SPS-induced allodynia and anxiety-like behaviors", "conditions": "less selective NOP receptor antagonist than SB; cited from earlier work"}, "[2]": {"system": "SPS induced anxiety-like behaviors in Sprague Dawley (SD) rats", "assay": "Elevated Plus Maze (EPM), SPS induced anxiety-like behaviors", "type": "in vivo", "conditions": "for Anxiety index (FIG. 3B): female SD rats (n=6, not yet fully powered)", "protocol": "(§1) SPS procedure: 2 h of complete restraint in disposable plastic holders, followed by grouped (2-3 rats) forced swim for 20 min in a cylindrical tank (46 cm tall×20 cm in diameter) filled with 22-25° C. water to a depth of 30 cm. After 15 min recovery and drying period, rats are exposed to diethyl ether until loss of consciousness and left undisturbed (except for drug or vehicle injection) and alone for 7 days, after which they are pair housed. All rats are housed with soft bedding, observed for signs of pain or discomfort: weight loss, lack of grooming, or porphyrin staining; any such rats is excluded from study.\nElevated Plus Maze (EPM): Rats will be tested for anxiety-like behaviors. The percentage of open arm entries (number of entries into the open arms divided by total number of entries in both arms), time spent in the open arms, total distance traveled, and total time spent immobile are noted. The anxiety index (AI) is calculated where total exploration on the maze represents the total number of arm entries: Anxiety Index=1−[[(time spent in open arms/total time on the maze (300 sec))+(number of entries into open arms/total number of arm entries)]/2]. Each animal is tested at 9 and 30 days post-SPS.\n(§2) Drug Treatment: PPL-138 (0.3 and 1 mg/kg) is dissolved in the same vehicle as 10 mg/kg SB (3% DMSO+97% of 0.5% hydroxypropyl cellulose (HPC)). Drug treatment (i.p.) begins immediately after exposure to ether and continues every other day thereafter. Ctr and SPS rats receive vehicle (3% DMSO+97% 0.5% HPC) injections.\nAnxiety index reflects a combination of three anxiety-like behaviors.\n(§3) Control (Ctr) and SPS-treated male and female SD rats are treated 3 times each week with Veh, PPL-138 (0.3 and 1 mg/kg, s.c.) or the NOP antagonist SB612111 (SB; 3 mg/kg, i.p.). […] SB alleviates TBI- and 6-OHDA Parkinson disease model-induced locomotor deficits and brain hypoxia."}, "[3]": {"system": "SPS-induced allodynia in Sprague Dawley (SD) rats", "assay": "tactile sensitivity (allodynia), paw withdrawal threshold (PWT) after SPS", "type": "in vivo", "conditions": "for paw withdrawal threshold, allodynia (FIG. 2A): male SD rats, 1 mg/kg i.p., days 14, 21 and 28, SPS vs SPS+PPL-138, p<0.05 (Tukey); for allodynia (PWT, FIG. 4A): male SPS rats", "protocol": "as §1, §2\n(§4) Degree of enhanced nociceptive sensitivity by SPS to tactile and thermal stimuli were reduced in this cohort likely a result of group housing during the first 7 days instead of our usual solo housing (FIG. 2). […] PPL-138 reduced serum N/OFQ levels compared to SPS (p<0.05 by Tukey's post-hoc test).\nas §3\n(§5) Sensitivity to tactile and thermal sensitivity in males and females was determined by paw withdrawal threshold to increasing pressure (PWT; tactile) and paw withdrawal latency to a thermal stimulus (PWL) (FIG. 4). There was a significant interaction between time and treatment for sensitivity to both tactile (A) and thermal (C) stimuli for males ([F (28, 228)=1.708, p=0.0182] and [F (28, 228)=4.276, p<0.0001]), respectively, as well as for thermal sensitivity (D) in females [F (28, 164)=2.286, p=0.0007]. […] Allodynia was reversed by 0.3 mg/kg PPL-138 and by SB in males, and by 1 mg/kg PPL-138 in females (#p<0.05). Thermal hyperalgesia was reversed by both doses of PPL-138 and SB in males, and by 1 mg/kg PPL-138 and SB in females."}, "[4]": {"system": "SPS-induced thermal hyperalgesia in Sprague Dawley (SD) rats", "assay": "thermal sensitivity (hyperalgesia), paw withdrawal latency (PWL) after SPS", "type": "in vivo", "conditions": "for thermal hyperalgesia (PWL, FIG. 4D): female SPS rats; for thermal hyperalgesia (PWL, FIG. 4D) / thermal hyperalgesia (PWL, FIG. 4C): 28 days; for thermal hyperalgesia (PWL, FIG. 4C): male SPS rats", "protocol": "as §1, §2, §4, §3, §5"}, "[5]": {"system": "N/OFQ", "assay": "serum N/OFQ levels after SPS", "type": "in vivo, Sprague Dawley (SD) rats", "conditions": "end of pilot study, compared to SPS, p<0.05 (Tukey); ANOVA F (2, 12)=4.147, p=0.0421", "protocol": "as §1, §2, §4"}, "[6]": {"target": "mu opioid receptor", "conditions": "all four members of the opioid receptor family; cited from earlier work"}, "[7]": {"target": "kappa opioid receptor", "conditions": "all four members of the opioid receptor family; cited from earlier work"}, "[8]": {"target": "delta opioid receptor", "conditions": "all four members of the opioid receptor family; cited from earlier work"}, "[9]": {"target": "NOP receptor", "conditions": "all four members of the opioid receptor family; cited from earlier work"}, "[10]": {"system": "mu opioid receptor", "conditions": "less than buprenorphine; cited from earlier work"}, "[11]": {"system": "NOP receptor", "conditions": "higher than buprenorphine; cited from earlier work"}, "[12]": {"system": "kappa receptor", "conditions": "PPL-138 like buprenorphine; cited from earlier work"}, "[13]": {"system": "delta receptor", "conditions": "PPL-138 like buprenorphine; cited from earlier work"}, "[14]": {"system": "TBI-induced locomotor deficits and brain hypoxia", "conditions": "cited from earlier work"}, "[15]": {"system": "6-OHDA Parkinson disease model-induced locomotor deficits and brain hypoxia", "conditions": "cited from earlier work"}, "[16]": {"system": "neuropathy", "conditions": "models of neuropathy; cited from earlier work"}, "[17]": {"system": "irritable bowel syndrome (IBS)", "conditions": "models of irritable bowel syndrome (IBS); cited from earlier work"}}, "note": "“Also recorded” adds a separate entry of the source."}
{"smiles": "CCc1ccc(OCc2ccccc2C(=O)Nc2ccc3nc(C)cc(N)c3c2)cc1", "note": "[JTC-801]", "values": [{"measurement": "SPS-induced allodynia", "setting": "[1]", "value": "reversed"}, {"measurement": "SPS-induced anxiety-like behaviors", "setting": "[1]", "value": "reversed"}]}
{"smiles": "O=C(CCc1ccccc1)O[C@@]12CCC(=O)[C@@H]3Oc4c(O)ccc5c4[C@@]31CCN(CC1CC1)[C@@H]2C5", "note": "[PPL-138, 14β-(3-phenylpropanoyl)-17-cyclopropylmethyl-7,8-dihydronoroxymorphinone]", "values": [{"measurement": "Anxiety index (FIG. 3B)", "setting": "[2]; PPL-138 1 mg/kg s.c., day 30 post-SPS", "value": "significant effect"}, {"measurement": "anxiety-like behaviors (FIG. 3B)", "setting": "[2]; female SD rats, overall statement", "value": "reduces"}, {"measurement": "distance travelled", "setting": "[2]; male SD rats, 1 mg/kg i.p., between groups (Ctr, SPS, SPS+PPL-138)", "value": "no differences"}, {"measurement": "open arm time (FIG. 1B)", "setting": "[2]; male SD rats, 1 mg/kg i.p., days 9 and 30 post-SPS, treatment F (2,12)=5.066, p<0.05, PPL 138+SPS vs SPS *p<0.05, **p<0.01 (Tukey), 1 mg/kg", "value": "increased; also recorded: significant effect"}, {"measurement": "anxiety index (FIG. 1A)", "setting": "[2]; male SD rats, 1 mg/kg i.p., days 9 and 30 post-SPS, treatment F (2,12)=9.912, p<0.005, PPL 138+SPS vs SPS *p<0.05, **p<0.01 (Tukey), 1 mg/kg", "value": "reduced; also recorded: significant effect"}, {"measurement": "open arm entries (FIG. 1C)", "setting": "[2]; male SD rats, 1 mg/kg i.p., days 9 and 30 post-SPS, treatment F (2,12)=11.99, p<0.005, PPL 138+SPS vs SPS *p<0.05, **p<0.01 (Tukey), 1 mg/kg", "value": "increased; also recorded: significant effect"}, {"measurement": "Anxiety index (FIG. 3A)", "setting": "[2]; male SD rats, PPL-138 0.3 mg/kg s.c., day 30 post-SPS", "value": "significant effects"}, {"measurement": "Anxiety index (FIG. 3A)", "setting": "[2]; male SD rats, PPL-138 1 mg/kg s.c., day 9 post-SPS", "value": "significant effect"}, {"measurement": "Anxiety index (FIG. 3A)", "setting": "[2]; male SD rats, PPL-138 1 mg/kg s.c., day 30 post-SPS", "value": "significant effects"}, {"measurement": "anxiety-like behaviors (FIG. 3A)", "setting": "[2]; male SD rats, overall statement", "value": "reduces"}, {"measurement": "development of PTSD-induced anxiety-like behaviors", "setting": "[2]; males and females, overall conclusion", "value": "reverses"}, {"measurement": "allodynia (FIG. 4)", "setting": "[3]; SD rats, overall statement", "value": "reduces"}, {"measurement": "allodynia (PWT, FIG. 4B)", "setting": "[3]; female SPS rats, PPL-138 1 mg/kg s.c., 28 days, #p<0.05", "value": "reversed"}, {"measurement": "paw withdrawal threshold, allodynia (FIG. 2A)", "setting": "[3]; 1 mg/kg", "value": "SPS rats had significantly lower paw withdrawal threshold"}, {"measurement": "paw withdrawal threshold, allodynia (FIG. 2A)", "setting": "[3]; listed as PPL 138, 1 mg/kg", "value": "reversed"}, {"measurement": "allodynia (PWT, FIG. 4A)", "setting": "[3]; PPL-138 0.3 mg/kg s.c., 28 days, #p<0.05", "value": "reversed"}, {"measurement": "development of PTSD-induced nociceptive sensitivity", "setting": "[3]; males and females, overall conclusion (tactile and thermal)", "value": "reverses"}, {"measurement": "hyperalgesia (FIG. 4)", "setting": "[4]; SD rats, overall statement", "value": "reduces"}, {"measurement": "thermal hyperalgesia (PWL, FIG. 4D)", "setting": "[4]; PPL-138 1 mg/kg s.c.", "value": "reversed"}, {"measurement": "thermal sensitivity (FIG. 2B)", "setting": "[4]; male SD rats, 1 mg/kg i.p., treatment F (2, 12)=7.56, p<0.01", "value": "reversed"}, {"measurement": "thermal hyperalgesia (PWL, FIG. 4C)", "setting": "[4]; PPL-138 0.3 mg/kg s.c. (both doses)", "value": "reversed"}, {"measurement": "thermal hyperalgesia (PWL, FIG. 4C)", "setting": "[4]; PPL-138 1 mg/kg s.c. (both doses)", "value": "reversed"}, {"measurement": "serum N/OFQ levels", "setting": "[5]", "value": "reduced"}, {"measurement": "Ki", "setting": "[6]", "value": "< 0.01", "unit": "µM"}, {"measurement": "Ki", "setting": "[7]", "value": "< 0.01", "unit": "µM"}, {"measurement": "Ki", "setting": "[8]", "value": "< 0.01", "unit": "µM"}, {"measurement": "Ki", "setting": "[9]", "value": "< 0.01", "unit": "µM"}, {"measurement": "efficacy at mu", "setting": "[10]", "value": "very low efficacy"}, {"measurement": "partial agonist activity at NOP receptor", "setting": "[11]", "value": "partial agonist"}, {"measurement": "activity at kappa receptor", "setting": "[12]", "value": "antagonist"}, {"measurement": "activity at delta receptor", "setting": "[13]", "value": "antagonist"}]}
{"smiles": "Cc1cccc2c1CC[C@H](CN1CCC(c3c(Cl)cccc3Cl)CC1)C[C@@H]2O", "note": "[SB612111]", "values": [{"measurement": "Anxiety index (FIG. 3B)", "setting": "[2]; SB 3 mg/kg i.p., day 9 post-SPS", "value": "significant effect"}, {"measurement": "Anxiety index (FIG. 3A)", "setting": "[2]; male SD rats, SB 3 mg/kg i.p., day 30 post-SPS", "value": "significant effects"}, {"measurement": "allodynia (PWT, FIG. 4A)", "setting": "[3]; SB 3 mg/kg i.p., 28 days, #p<0.05", "value": "reversed"}, {"measurement": "thermal hyperalgesia (PWL, FIG. 4D)", "setting": "[4]; SB 3 mg/kg i.p.", "value": "reversed"}, {"measurement": "thermal hyperalgesia (PWL, FIG. 4C)", "setting": "[4]; SB 3 mg/kg i.p.", "value": "reversed"}, {"measurement": "brain hypoxia", "setting": "[14]", "value": "alleviates"}, {"measurement": "locomotor deficits", "setting": "[14]", "value": "alleviates"}, {"measurement": "brain hypoxia", "setting": "[15]", "value": "alleviates"}, {"measurement": "locomotor deficits", "setting": "[15]", "value": "alleviates"}, {"measurement": "antinociception", "setting": "[16]", "value": "produces antinociception"}, {"measurement": "antinociception", "setting": "[17]", "value": "produces antinociception"}]}
{"smiles": "CO[C@@]12CC[C@@]3(C[C@@H]1[C@](C)(O)C(C)(C)C)[C@H]1Cc4ccc(O)c5c4[C@@]3(CCN1CC1CC1)[C@H]2O5", "note": "[buprenorphine, reference compound]", "values": [{"measurement": "activity at kappa receptor", "setting": "[12]", "value": "antagonist"}, {"measurement": "activity at delta receptor", "setting": "[13]", "value": "antagonist"}]}
